According to PubChem BioAssay AID1963436 (Molecular Pharmacology Branch, DTP, NCI, 2024):

Tested on: OVCAR-5 complex spheroid (HUVEC/MSC), viability % T/C
Assay: Anticancer human tumor OVCAR-5 cell line growth inhibition [Asc];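 also: spheroids exposed to agents for 7 days before readout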;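 as to viability, T/C: 100% = DMSO vehicle-treated wells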
Details: for IC50: curve of first compound; for viability, T/C: stronger effect = lower value
In short: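 Concentration series start at each agent's clinical Cmax, or at 10 microM when none is established, and drop in half-log steps; agents are applied alone or together to complex spheroids built with HUVEC and hMSC.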

[1] = second compound 0.01 µM, first compound 0.0316 µM
[2] = second compound 0.01 µM, first compound 0.1 µM
[3] = second compound 0.01 µM, first compound 0.316 µM
[4] = second compound 0.01 µM, first compound 1 µM
[5] = second compound 0.01 µM, first compound 3.16 µM
[6] = second compound 0.01 µM, first compound 10 µM
[7] = second compound 0.0316 µM, first compound 0.0316 µM
[8] = second compound 0.0316 µM, first compound 0.1 µM
[9] = second compound 0.0316 µM, first compound 0.316 µM
[10] = second compound 0.0316 µM, first compound 1 µM
[11] = second compound 0.0316 µM, first compound 3.16 µM
[12] = second compound 0.0316 µM, first compound 10 µM
[13] = second compound 0.1 µM, first compound 0.0316 µM
[14] = second compound 0.1 µM, first compound 0.1 µM
[15] = second compound 0.1 µM, first compound 0.316 µM
[16] = second compound 0.1 µM, first compound 1 µM
[17] = second compound 0.1 µM, first compound 3.16 µM
[18] = second compound 0.1 µM, first compound 10 µM
[19] = second compound 0.316 µM, first compound 0.0316 µM
[20] = second compound 0.316 µM, first compound 0.1 µM
[21] = second compound 0.316 µM, first compound 0.316 µM
[22] = second compound 0.316 µM, first compound 1 µM
[23] = second compound 0.316 µM, first compound 3.16 µM
[24] = second compound 0.316 µM, first compound 10 µM
[25] = second compound 1 µM, first compound 0.0316 µM
[26] = second compound 1 µM, first compound 0.1 µM
[27] = second compound 1 µM, first compound 0.316 µM
[28] = second compound 1 µM, first compound 1 µM
[29] = second compound 1 µM, first compound 3.16 µM
[30] = second compound 1 µM, first compound 10 µM

Compound | IC50 (second compound 0.01 µM) | IC50 (second compound 0.0316 µM) | IC50 (second compound 0.1 µM) | IC50 (second compound 0.316 µM) | IC50 (second compound 1 µM) | viability, T/C [1] | viability, T/C [2] | viability, T/C [3] | viability, T/C [4] | viability, T/C [5] | viability, T/C [6] | viability, T/C [7] | viability, T/C [8] | viability, T/C [9] | viability, T/C [10] | viability, T/C [11] | viability, T/C [12] | viability, T/C [13] | viability, T/C [14] | viability, T/C [15] | also measured
C#Cc1c(F)ccc2cc(O)cc(-c3ncc4c(N5CC6CCC(C5)N6)nc(OCC56CCCN5CC(F)C6)nc4c3F)c12 (stereo not given) + CNC(C)C(=O)NC1CN(S(=O)(=O)c2cccc(S(=O)(=O)N3CCC4CCC(C(=O)NC(c5ccccc5)c5ccccc5)N4C(=O)C(NC(=O)C(C)NC)C3)c2)CCC2CCC(C(=O)NC(c3ccccc3)c3ccccc3)N2C1=O | 6.86 µM | 6.23 µM | 5.08 µM | 4.98 µM | 5.11 µM | 97% | 99.1% | 95.8% | 84.2% | 70.8% | 40.2% | 90.2% | 88.1% | 91.8% | 68.5% | 66.5% | 40.3% | 84.9% | 89.5% | 76.2% | viability, T/C [16]: 64.8%; viability, T/C [17]: 63.6%; viability, T/C [18]: 37%; viability, T/C [19]: 84.5%; viability, T/C [20]: 84.2%; viability, T/C [21]: 75.3%; viability, T/C [22]: 65.9%; viability, T/C [23]: 61.2%; viability, T/C [24]: 37.8%; viability, T/C [25]: 93.3%; viability, T/C [26]: 95.2%; viability, T/C [27]: 76.1%; viability, T/C [28]: 71%; viability, T/C [29]: 65%; viability, T/C [30]: 35.2%
C=C(F)C(=O)N1CCN(c2nc(OCC3CCCN3C)nc3c2CCN(c2cccc4cccc(Cl)c24)C3)CC1CC#N (stereo not given) + CNC(C)C(=O)NC1CN(S(=O)(=O)c2cccc(S(=O)(=O)N3CCC4CCC(C(=O)NC(c5ccccc5)c5ccccc5)N4C(=O)C(NC(=O)C(C)NC)C3)c2)CCC2CCC(C(=O)NC(c3ccccc3)c3ccccc3)N2C1=O | 1.32 µM | 1.15 µM | 0.968 µM | 0.844 µM | 0.74 µM | 105% | 93.5% | 82.5% | 66.2% | 11.3% | 0.22% | 94.4% | 78.9% | 79% | 56.7% | 11.6% | 0.16% | 92% | 84% | 76.9% | viability, T/C [16]: 51.2%; viability, T/C [17]: 10.4%; viability, T/C [18]: 0.18%; viability, T/C [19]: 90.5%; viability, T/C [20]: 79.2%; viability, T/C [21]: 70.4%; viability, T/C [22]: 50.3%; viability, T/C [23]: 9.19%; viability, T/C [24]: 0.16%; viability, T/C [25]: 90.3%; viability, T/C [26]: 89.5%; viability, T/C [27]: 67%; viability, T/C [28]: 46.5%; viability, T/C [29]: 10.2%; viability, T/C [30]: 0.23%
